The test system of data set [1] is Mus musculus. The data set can be described thus: Anticonvulsant activity in maximal electroshock induced seizure mouse model assessed as reduction in convulsions at 50 mg/kg, po. It counts as functional, organism-based. (In general: Protection in the maximal electroshock model is a classic sign of anticonvulsant action.)
Data set [2] has as its system Mus musculus. As to the kind of experiment: Anticonvulsant activity in maximal electroshock induced seizure mouse model assessed as reduction in convulsions at 100 mg/kg, po. It counts as functional, organism-based.
Data set [3] deals with Mus musculus. As to the kind of experiment: Anticonvulsant activity in maximal electroshock induced seizure mouse model assessed as reduction in convulsions at 25 mg/kg, po. Type of data set: functional, organism-based.
The subject of data set [4] is Rattus norvegicus. The data set can be described thus: Anticonvulsant activity in amygdala kindling rat model assessed as change in after discharge duration at 100 mg/kg, po (reference value: -5.5%). It counts as functional.
For data set [5], the system named is Mus musculus. As to the kind of experiment: Anticonvulsant activity in po dosed maximal electroshock induced seizure mouse model assessed as reduction in convulsions. It counts as functional.
The subject of data set [6] is Mus musculus. The data set can be described thus: Anticonvulsant activity in po dosed subcutaneous pentylenetetrazole-induced seizure mouse model assessed as reduction in convulsions. It counts as functional.
The target of data set [7] is T1, GABA-A receptor; anion channel (Homo sapiens) (UniProt P14867+P47870+P18507+P28472+P48169+Q99928+Q9UN88+P34903+O00591+O14764+Q8N1C3+P18505+P78334+P47869+P31644+Q16445). As to the kind of experiment: Displacement of [3H]TBOB from GABAA receptor (unknown origin) at 30 uM. Type of data set: protein-complex assay. Background: Loss of bound radioactivity is the signal in a displacement assay; it reports binding, not function.

The target in data set [8] is T2, GABA-A receptor; anion channel (Rattus norvegicus) (UniProt O09028+P15431+P18506+P18508+P19969+P20236+P23574+P23576+P28471+P28473+P30191+P62813+P63079+P63138+Q91ZM7+Q9ES14). The data set can be described thus: Displacement of […] from GABAA receptor in Sprague-Dawley rat cerebral cortex at 30 uM by scintillation counting method.
The subject of data set [9] is Mus musculus. As to the kind of experiment: Anticonvulsant activity in po dosed 6-Hz induced seizure mouse model. Type of data set: functional.
Data set [10] relates to Rattus norvegicus. As to the kind of experiment: Anticonvulsant activity in amygdala kindling rat model assessed as change in after discharge threshold at 100 mg/kg, po relative to control. It counts as functional.
In data set [11] the target is T1, GABA-A receptor; anion channel (Homo sapiens). The data set can be described thus: Displacement of [3H]Ro15-1788 from GABAA receptor (unknown origin) at 30 uM. It counts as protein-complex assay.
The target is the same in data set [12]. As to the kind of experiment: Displacement of [3H]muscimol from GABAA receptor (unknown origin) at 30 uM. It counts as protein-complex assay.
Data set [13] deals with Rattus norvegicus. The data set can be described thus: Anticonvulsant activity in amygdala kindling rat model assessed as change in after discharge duration at 50 mg/kg, po (reference value: -5.5%). Type of data set: functional.
Data set [14] can be described thus: Therapeutic index, ratio of TD50 for neurotoxicity in po dosed mouse to ED50 for po dosed 6-Hz induced seizure mouse model. As to conditions: in vivo, read-out: Ratio TD50/ED50. Type of data set: toxicity, organism-based.
Data set [15] in a line: Therapeutic index, ratio of TD50 for neurotoxicity in po dosed mouse to ED50 for po dosed maximal electroshock induced seizure mouse model. It counts as toxicity, organism-based. As to conditions: in vivo, read-out: Ratio TD50/ED50.
Data set [16] can be described thus: Stability in human hepatic microsomes assessed as parent compound remaining after 30 mins in presence of NADPH. Type of data set: ADME, Microsome. As to conditions: liver microsomes, read-out: Stability. A general note: Liver microsomes are a subcellular fraction often used to study metabolism.
Data set [17] can be described thus: Neurotoxicity in po dosed mouse by rotarod test. It counts as toxicity, organism-based. As to conditions: in vivo.
Data set [18] has as its target T2, GABA-A receptor; anion channel (Rattus norvegicus). As to the kind of experiment: Displacement of [3H]flunitrazepam from GABAA receptor in Sprague-Dawley rat cerebral cortex at 30 uM after 60 mins by scintillation counting method.
Data set [19] has as its system Rattus norvegicus. As to the kind of experiment: Anticonvulsant activity in amygdala kindling rat model assessed as change in after discharge threshold at 50 mg/kg, po relative to control. Type of data set: functional.
A short description of data set [20]: Stability in rat hepatic microsomes assessed as parent compound remaining after 30 mins in presence of NADPH. As to conditions: liver microsomes, read-out: Stability. Type of data set: ADME, Microsome.
Data set [21] concerns Mus musculus. The data set can be described thus: Anticonvulsant activity in subcutaneous pentylenetetrazole-induced seizure mouse model assessed as reduction in convulsions at 100 mg/kg, po. It counts as functional, organism-based.
Data set [22] concerns Mus musculus. As to the kind of experiment: Anticonvulsant activity in subcutaneous pentylenetetrazole-induced seizure mouse model assessed as reduction in convulsions at 25 mg/kg, po. Type of data set: functional, organism-based.
Data set [23] has as its system Mus musculus. The data set can be described thus: Anticonvulsant activity in subcutaneous pentylenetetrazole-induced seizure mouse model assessed as reduction in convulsions at 50 mg/kg, po. It counts as functional, organism-based.
For data set [24], the system named is Rattus norvegicus. The data set can be described thus: Anticonvulsant activity in amygdala kindling rat model assessed as change in after discharge duration at 300 mg/kg, po (reference value: -5.5%). Type of data set: functional.
Data set [25] has as its system Rattus norvegicus. As to the kind of experiment: Anticonvulsant activity in amygdala kindling rat model assessed as change in after discharge duration at 600 mg/kg, po (reference value: -5.5%). It counts as functional.
Data set [26] has as its system Rattus norvegicus. As to the kind of experiment: Anticonvulsant activity in amygdala kindling rat model assessed as change in after discharge threshold at 600 mg/kg, po relative to control. Type of data set: functional.
Data set [27] deals with Rattus norvegicus. As to the kind of experiment: Anticonvulsant activity in amygdala kindling rat model assessed as change in after discharge threshold at 300 mg/kg, po relative to control. It counts as functional.

The term ED50 denotes the dose that gives a 50% effect, or the effect in half of the subjects. Usually TD50 stands for the dose at which the toxic effect under study appears in half of the subjects. A low value points to greater toxicity.

Each structure is given as a SMILES string. The source made the active and inactive calls.

Regarding `NC(=O)c1ccccc1-c1ccccc1F`, the result with Mus musculus [1], in the data set with Mus musculus [2] and in the data set with Mus musculus [3] was Active.
As for `NC(=O)Cc1ccccc1-c1ccccc1F`, the Activity is listed as -22.9% with Rattus norvegicus [4], 80.1% in the data set on Rattus norvegicus [10], -22.9% in the data set with Rattus norvegicus [13] and 75.9% in the data set on Rattus norvegicus [19]. Moreover, the result with Mus musculus [1] and in the data set with Mus musculus [2] was Active. Moreover, the median effective dose (ED50) with Mus musculus [5] was found to be 27 mg/kg; in the data set on Mus musculus [6], 27 mg/kg; in the data set with Mus musculus [9], 56 mg/kg. The inhibition result in [7], in [8], in data set [11], in data set [12] and in [18] was “inactive” each time. The values for the selectivity ratio in [14] and in data set [15] were 2.3 and 4.8, respectively. The remaining at 0.5 h in [16] and in [20] was greater than 95% each time. In addition, the TD50 in data set [17] was 129 mg/kg.
`O=C1CCCN1c1ccccc1-c1ccccc1F`: the result with Mus musculus [21] was inactive. Besides, the outcome with Mus musculus [2] was Active.
`NC(=O)Cc1ncccc1-c1ccccc1F`: the outcome in the data set with Mus musculus [2] was Active.
On to `NC(=O)Cc1cccc(F)c1-c1ccccc1F`, for which the outcome in the data set with Mus musculus [1] and in the data set with Mus musculus [2] was Active. For the same compound, the outcome in the data set on Mus musculus [22] was inactive.
On to `COc1ccccc1-c1ccccc1CC(N)=O`, for which, in the data set with Mus musculus [1], the outcome was inactive.
As to `CNS(=O)(=O)c1ccccc1-c1ccccc1F`, the result in the data set with Mus musculus [1], in the data set with Mus musculus [21], in the data set with Mus musculus [23], in the data set on Mus musculus [2] and in the data set with Mus musculus [3] was Active.
With `NC(=O)Cc1ccccc1-c1cc(F)ccc1F`, the outcome in the data set on Mus musculus [1], with Mus musculus [21] and in the data set on Mus musculus [2] was Active. In addition, the result in the data set with Mus musculus [22] and in the data set with Mus musculus [3] was inactive.
With `NC(=O)Cc1c(F)cccc1-c1ccccc1F`, the outcome in the data set on Mus musculus [1] and in the data set with Mus musculus [2] was Active.
For the compound `NC(=O)Cc1ccccc1-c1ccccc1Cl`, the outcome in the data set on Mus musculus [1], in the data set with Mus musculus [21], in the data set on Mus musculus [23] and in the data set on Mus musculus [2] was Active. Besides, the outcome in the data set on Mus musculus [22] was inactive.
Take `NC(=O)Cc1ccccc1-c1ccc(F)cc1F`: the result with Mus musculus [2] was Active.
As for `O=C(O)Cc1ccccc1-c1ccccc1F`, the result in the data set with Mus musculus [21] and in the data set with Mus musculus [2] was inactive.
Regarding `NC(=O)Cc1cccnc1-c1ccccc1F`, the result in the data set with Mus musculus [2] was inactive.
For `NC(=O)Cc1ccc(F)cc1-c1ccccc1F`, the outcome with Mus musculus [1] and in the data set with Mus musculus [2] was Active. The outcome in the data set with Mus musculus [3] was inactive.
For `NC(=O)Cc1ccccc1-c1ccccc1C(F)(F)F`, the outcome in the data set with Mus musculus [1] and with Mus musculus [23] was inactive. The result in the data set with Mus musculus [2] was Active.
In the case of `NC(=O)Cc1ccccc1-c1ccncc1F`, the outcome with Mus musculus [2] was inactive.
For the compound `NC(=O)Cc1ccccc1-c1c(F)cccc1F`, the result in the data set with Mus musculus [1], with Mus musculus [21], in the data set with Mus musculus [2] and with Mus musculus [3] was Active. In the data set with Mus musculus [22], the outcome was inactive.
`N#Cc1ccccc1-c1ccccc1CC(N)=O`: the result in the data set on Mus musculus [21] was inactive.
For the compound `O=C1NC(=O)C(c2ccccc2-c2ccccc2F)N1` (centres undefined), the outcome in the data set on Mus musculus [21] was inactive. The outcome in the data set on Mus musculus [2] was Active.
For the compound `NC(=O)Cc1cnccc1-c1ccccc1F`, the result in the data set on Mus musculus [21] and with Mus musculus [2] was inactive.
`NC(=O)Cc1cc(F)ccc1-c1ccccc1F`: the result in the data set with Mus musculus [21] and in the data set on Mus musculus [2] was Active. Further, the result in the data set with Mus musculus [22] and in the data set with Mus musculus [3] was inactive.
Regarding `CCCC(CCC)C(=O)[O-].[Na+]` [VALPROATE SODIUM], the ED50 was 309 mg/kg in the data set with Mus musculus [5], 336 mg/kg with Mus musculus [6] and 343 mg/kg in the data set with Mus musculus [9]. Also, the Activity in the data set on Rattus norvegicus [24] is 11.1%; in the data set on Rattus norvegicus [25], -22.5%; in the data set on Rattus norvegicus [26], 81.3%; in the data set with Rattus norvegicus [27], -5.4%. The compound also showed a TD50 in [17] of 396 mg/kg.

For the origin of these results see ChEMBL document CHEMBL4371063, “Identification of 2-(2'-fluoro-[1,1'-biphenyl]-2-yl)acetamide as a Sodium Valproate-like broad spectrum anti-epileptic drug candidate” (Bioorg Med Chem Lett, 2019).
